This assay concerns the target His-tagged CRBN-DDB1 complex (Homo sapiens, UniProt Q96SW2). The assay can be described thus: Time-Resolved Fluorescence Resonance Energy Transfer (TR-FRET / HTRF) CRBN binding assay, displacement of Cy5-labeled thalidomide. The note with it: His-CRBN-DDB1, Cy5-thalidomide 8 nM, 1 hour room temperature. The method, then:
Time-Resolved Fluorescence Resonance Energy Transfer (TR-FRET) Assay.
Equal volumes of His-tagged CRBN-DDB1 complex (56 nM) was mixed with Eu-cryptate labeled Anti-6HIS-monoclonal antibody (50× dilution from the commercial stock solution, Vender: Cisbio, Cat. #61HI2KLA) in a final buffer containing 20 mM HEPES pH 7.0, 150 mM NaCl, 0.005% Tween-20. […] The mixture were incubated at room temperature for 1 hour. FRET signals were measured on an EnVision plate reader (Perkin Elmer) by exciting at 340 nm and recording emission at both 615 nm as no FRET control and 665 nm as the FRET signals with a 60 microsecond delay. FRET efficiency was calculated as the ratio of fluorescent signals at […]. Quantitative loss of FRET efficiency as a function of compound concentrations was fitted by a four-parameter Logistic Function using GraphPad Prism 7.0 and the IC50 values were reported for each compound.
The compound numbers correspond to the compound numbers in Table 1.
For orientation: In TR-FRET formats the signal depends on donor and acceptor labels being close together.
Sequence of His-tagged CRBN-DDB1 complex (Q96SW2 whole entry): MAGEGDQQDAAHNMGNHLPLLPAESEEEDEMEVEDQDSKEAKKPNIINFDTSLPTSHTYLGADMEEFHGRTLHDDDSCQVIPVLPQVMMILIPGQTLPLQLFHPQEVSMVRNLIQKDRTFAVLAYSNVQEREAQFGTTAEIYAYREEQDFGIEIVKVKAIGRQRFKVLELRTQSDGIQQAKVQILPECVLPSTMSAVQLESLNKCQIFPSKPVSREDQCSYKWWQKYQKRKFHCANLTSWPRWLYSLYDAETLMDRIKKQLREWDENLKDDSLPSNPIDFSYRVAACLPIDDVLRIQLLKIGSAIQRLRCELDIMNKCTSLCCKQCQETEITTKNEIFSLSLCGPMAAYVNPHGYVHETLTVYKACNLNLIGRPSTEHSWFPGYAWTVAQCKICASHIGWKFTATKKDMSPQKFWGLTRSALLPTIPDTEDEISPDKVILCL
Sequence of His-tagged CRBN-DDB1 complex (Q16531 whole entry partner): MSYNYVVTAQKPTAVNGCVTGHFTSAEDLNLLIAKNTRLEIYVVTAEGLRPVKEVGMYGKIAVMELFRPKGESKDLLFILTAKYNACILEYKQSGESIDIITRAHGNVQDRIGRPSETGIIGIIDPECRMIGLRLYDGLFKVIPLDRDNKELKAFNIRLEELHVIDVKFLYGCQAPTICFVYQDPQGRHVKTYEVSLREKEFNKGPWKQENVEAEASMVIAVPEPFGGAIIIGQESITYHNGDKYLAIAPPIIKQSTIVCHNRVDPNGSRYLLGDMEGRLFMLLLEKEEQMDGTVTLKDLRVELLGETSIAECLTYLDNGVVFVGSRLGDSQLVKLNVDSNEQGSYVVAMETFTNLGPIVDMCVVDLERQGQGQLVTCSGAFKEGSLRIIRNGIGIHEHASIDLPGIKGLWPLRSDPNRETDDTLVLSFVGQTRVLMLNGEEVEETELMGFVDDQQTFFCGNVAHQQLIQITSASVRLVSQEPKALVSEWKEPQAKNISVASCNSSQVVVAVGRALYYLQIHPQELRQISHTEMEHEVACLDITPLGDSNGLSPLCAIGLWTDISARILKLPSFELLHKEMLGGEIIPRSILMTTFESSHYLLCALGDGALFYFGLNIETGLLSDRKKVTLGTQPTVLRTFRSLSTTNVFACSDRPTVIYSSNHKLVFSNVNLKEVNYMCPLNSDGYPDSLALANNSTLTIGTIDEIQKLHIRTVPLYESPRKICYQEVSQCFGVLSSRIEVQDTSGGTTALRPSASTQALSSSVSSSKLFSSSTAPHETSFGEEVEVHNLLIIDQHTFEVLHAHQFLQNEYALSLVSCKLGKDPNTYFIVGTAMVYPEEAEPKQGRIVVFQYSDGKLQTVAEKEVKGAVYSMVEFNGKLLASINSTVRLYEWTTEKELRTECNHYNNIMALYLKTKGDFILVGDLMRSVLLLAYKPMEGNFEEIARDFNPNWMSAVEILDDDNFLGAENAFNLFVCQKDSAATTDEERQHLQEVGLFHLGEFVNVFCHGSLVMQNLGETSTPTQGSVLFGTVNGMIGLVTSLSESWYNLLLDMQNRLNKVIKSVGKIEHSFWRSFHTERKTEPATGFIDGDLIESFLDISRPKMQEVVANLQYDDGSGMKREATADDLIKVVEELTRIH
For `O=C1Cc2cnc(Br)cc2C(=O)N1` [Compound I-13, 7-bromo-2,4-dihydro-2,6-naphthyridine-1,3-dione], the IC50 is over 100 µM. With `O=C1NC(=O)c2cc(Br)ccc21` [Compound I-28, 5-bromo-2H-isoindole-1,3-dione], the IC50 is over 100 µM. Then `Cc1ccccc1-c1ccc2c(c1)C(=O)NC2=O` [Compound I-30, 5-(2-methylphenyl)-2H-isoindole-1,3-dione], with over 100 µM; and `Cc1ncoc1-c1ccc2c(c1)C(=O)NC2=O` [Compound I-32, 5-(4-methyl-1,3-oxazol-5-yl)-2H-isoindole-1,3-dione], with over 100 µM. Then `Cc1ccccc1-n1cc2c(n1)CC(=O)NC2=O` [Compound I-35, 2-(2-methylphenyl)-5H,7H-pyrazolo[4,3-c]pyridine-4,6-dione], with over 100 µM; and `O=c1[nH]c(=O)c2cc(Br)ccc2[nH]1` [Compound I-55, 6-Bromo-1,3-dihydroquinazoline-2,4-dione], with over 100 µM; and `O=c1[nH]c(=O)c2c(Br)cccc2[nH]1` [Compound I-56, 5-Bromo-1,3-dihydroquinazoline-2,4-dione], with over 100 µM. Next, `Cn1c(=O)[nH]c(=O)c2cc(Br)ccc21` [Compound I-59, 6-bromo-1-methyl-3H-quinazoline-2,4-dione]: over 100 µM; `Cn1c(=O)[nH]c(=O)c2c(Br)cccc21` [Compound I-60, 5-bromo-1-methyl-3H-quinazoline-2,4-dione]: over 100 µM; `O=C1CC2(CCN(c3ccc(Br)cc3)CC2)CC(=O)N1` [Compound I-86]: over 100 µM. As for `COc1cc(F)ccc1N1CCC2(CC1)CC(=O)NC(=O)C2` [Compound I-87], the IC50 was over 100 µM. For the compound `COc1cccc(N2CCC3(CC2)CC(=O)NC(=O)C3)c1` [Compound I-88], the IC50 is over 100 µM. Next, `O=C1CC2(CCN(c3cccc(Cl)c3)CC2)CC(=O)N1` [Compound I-89]: over 100 µM. Next, `O=C1CC2(CCN(c3ccc(C(=O)NC4CC4)cc3)CC2)CC(=O)N1` [Compound I-90]: over 100 µM; `O=C1CC2(CCN(c3ccc(OCc4ccccc4)cc3)CC2)CC(=O)N1` [Compound I-91]: over 100 µM; `O=C1CC2(CCN(c3ccc(F)cc3)CC2)CC(=O)N1` [Compound I-92]: 30 to 100 µM.

Consider `Cc1ccc(N2CCC3(CC2)CC(=O)NC(=O)C3)cc1` [Compound I-93], for which the IC50 was over 100 µM.

On to `O=C1CC2(CCN(c3cccc4ncccc34)CC2)CC(=O)N1` [Compound I-94], for which the IC50 was over 100 µM.

Turning to `CCCOc1ccc(N2CCC3(CC2)CC(=O)NC(=O)C3)cc1` [Compound I-95], the IC50 is 30 to 100 µM. Then `CCOC(=O)c1cccc(N2CCC3(CC2)CC(=O)NC(=O)C3)c1` [Compound I-96], with over 100 µM; and `O=C1CC2(CCN(c3cccc(O)c3)CC2)CC(=O)N1` [Compound I-97], with over 100 µM; and `O=C1CC2(CCN(c3ccc(-c4ccccc4)cc3)CC2)CC(=O)N1` [Compound I-98], with over 100 µM. Next, `O=C1CC2(CCN(c3cccc(F)c3)CC2)CC(=O)N1` [Compound I-99]: over 100 µM; `CC(=O)Nc1cccc(N2CCC3(CC2)CC(=O)NC(=O)C3)c1` [Compound I-100]: over 100 µM; `CC(C)Oc1cccc(N2CCC3(CC2)CC(=O)NC(=O)C3)c1` [Compound I-101]: over 100 µM. Then `O=C1CC2(CCN(c3cccc(OC(F)(F)F)c3)CC2)CC(=O)N1` [Compound I-102], with over 100 µM; and `O=C1CC2(CCN(c3ccc(O)cc3)CC2)CC(=O)N1` [Compound I-103], with over 100 µM. For the compound `O=C1CC2(CCN(c3cccc4cnccc34)CC2)CC(=O)N1` [Compound I-104], the IC50 is over 100 µM. Next, `O=C1CC2(CCN(c3ccc(OC(F)(F)F)cc3)CC2)CC(=O)N1` [Compound I-105]: over 100 µM.

For `O=C1CC2(CCN(c3cccc(C(=O)O)c3)CC2)CC(=O)N1` [Compound I-106], the 50% inhibitory concentration (IC50) is over 100 µM. Next, `CS(=O)(=O)c1ccc(N2CCC3(CC2)CC(=O)NC(=O)C3)cc1` [Compound I-107]: over 100 µM. Next, `CC(C)(C)OC(=O)NCc1ccc(N2CCC3(CC2)CC(=O)NC(=O)C3)cc1` [Compound I-108]: 30 to 100 µM; `O=C1CC2(CCN(c3cccc4cccnc34)CC2)CC(=O)N1` [Compound I-109]: over 100 µM; `O=C1CC2(CCN(c3ccc(F)cc3Cl)CC2)CC(=O)N1` [Compound I-110]: over 100 µM. Next, `N#Cc1ccccc1N1CCC2(CC1)CC(=O)NC(=O)C2` [Compound I-111]: over 100 µM; `O=Cc1ccc(N2CCC3(CC2)CC(=O)NC(=O)C3)cc1` [Compound I-112]: over 100 µM; `Nc1ccc(N2CCC3(CC2)CC(=O)NC(=O)C3)cc1` [Compound I-113]: over 100 µM.

Turning to `O=C1CC2(CCN(c3ccc(Oc4ccccc4)cc3)CC2)CC(=O)N1` [Compound I-114], the concentration for half-maximal inhibition (IC50) lay within 30 to 100 µM. Next, `O=C1CC2(CCN(c3ccccc3Cl)CC2)CC(=O)N1` [Compound I-115]: over 100 µM; `NC(=O)c1ccc(N2CCC3(CC2)CC(=O)NC(=O)C3)cc1` [Compound I-116]: over 100 µM; `COc1ccc2cc(N3CCC4(CC3)CC(=O)NC(=O)C4)ccc2c1` [Compound I-117]: over 100 µM.

`O=C1CC2(CCN(c3ccc4c(c3)CCO4)CC2)CC(=O)N1` [Compound I-118] came in with a concentration for half-maximal inhibition (IC50) of over 100 µM. `O=C1CC2(CCN(c3ccc4c(c3)OCO4)CC2)CC(=O)N1` [Compound I-119] had an IC50 of over 100 µM. Then `O=C1NC(=O)[C@@H]2CN(c3ccc(-c4ccccc4)c(F)c3)C[C@H]12` [Compound I-120], with over 100 µM; and `Cc1ccccc1N1C[C@@H]2C(=O)NC(=O)[C@@H]2C1` [Compound I-121], with over 100 µM; and `COC(=O)c1ccc(N2C[C@@H]3C(=O)NC(=O)[C@@H]3C2)cc1` [Compound I-122], with over 100 µM. In turn, `O=C1NC(=O)[C@@H]2CN(c3ccc(Br)cc3)C[C@H]12` [Compound I-123] had an IC50 of 30 to 100 µM. Next, `COc1cccc(N2C[C@@H]3C(=O)NC(=O)[C@@H]3C2)c1` [Compound I-125]: over 100 µM; `O=C1NC(=O)[C@@H]2CN(c3cccc(Cl)c3)C[C@H]12` [Compound I-126]: over 100 µM. Then `O=C(NC1CC1)c1ccc(N2C[C@@H]3C(=O)NC(=O)[C@@H]3C2)cc1` [Compound I-127], with over 100 µM. Then `O=C1NC(=O)[C@@H]2CN(c3ccc(OCc4ccccc4)cc3)C[C@H]12` [Compound I-128], with over 100 µM; and `O=C1NC(=O)[C@@H]2CN(c3ccc(F)cc3)C[C@H]12` [Compound I-129], with over 100 µM. For the compound `Cc1ccc(N2C[C@@H]3C(=O)NC(=O)[C@@H]3C2)cc1` [Compound I-130], the IC50 is 30 to 100 µM. Then `O=C1NC(=O)[C@@H]2CN(c3cccc4ncccc34)C[C@H]12` [Compound I-131], with over 100 µM; and `O=C1NC(=O)[C@@H]2CN(c3cccc(O)c3)C[C@H]12` [Compound I-134], with over 100 µM; and `O=C1NC(=O)[C@@H]2CN(c3cccc(F)c3)C[C@H]12` [Compound I-135], with over 100 µM. Then `CC(=O)Nc1cccc(N2C[C@@H]3C(=O)NC(=O)[C@@H]3C2)c1` [Compound I-136], with over 100 µM; and `CC(C)Oc1cccc(N2C[C@@H]3C(=O)NC(=O)[C@@H]3C2)c1` [Compound I-137], with over 100 µM. As for `CCCOc1ccc(N2C[C@@H]3C(=O)NC(=O)[C@@H]3C2)cc1` [Compound I-138], the IC50 was over 100 µM. Then `O=C1NC(=O)[C@@H]2CN(c3cccc(OC(F)(F)F)c3)C[C@H]12` [Compound I-139], with over 100 µM; and `O=C1NC(=O)[C@@H]2CN(c3ccc(O)cc3)C[C@H]12` [Compound I-140], with over 100 µM. Next, `O=C1NC(=O)[C@@H]2CN(c3cccc4cnccc34)C[C@H]12` [Compound I-141]: over 100 µM; `O=C1NC(=O)[C@@H]2CN(c3ccc(OC(F)(F)F)cc3)C[C@H]12` [Compound I-142]: over 100 µM. Next, `O=C(O)c1cccc(N2C[C@@H]3C(=O)NC(=O)[C@@H]3C2)c1` [Compound I-143]: over 100 µM; `CS(=O)(=O)c1ccc(N2C[C@@H]3C(=O)NC(=O)[C@@H]3C2)cc1` [Compound I-144]: over 100 µM. In the case of `CC(C)(C)OC(=O)NCc1ccc(N2C[C@@H]3C(=O)NC(=O)[C@@H]3C2)cc1` [Compound I-145], the IC50 is over 100 µM. Next, `O=C1NC(=O)[C@@H]2CN(c3cccc4cccnc34)C[C@H]12` [Compound I-146]: over 100 µM. Next, `O=C1NC(=O)[C@@H]2CN(c3ccc(F)cc3Cl)C[C@H]12` [Compound I-147]: over 100 µM; `N#Cc1ccccc1N1C[C@@H]2C(=O)NC(=O)[C@@H]2C1` [Compound I-148]: over 100 µM; `O=Cc1ccc(N2C[C@@H]3C(=O)NC(=O)[C@@H]3C2)cc1` [Compound I-149]: over 100 µM.

The term IC50 denotes the concentration that inhibits the measured activity by half. A high value points to weaker potency.

These data come from patent publication US20220281831A1, “FUSED-GLUTARIMIDE CRBN LIGANDS AND USES THEREOF” (Kymera Therapeutics, Inc., priority 2019, published 2022).
